The values that follow come from US20230099344A1, “COMPOUNDS AND METHODS FOR THE TARGETED DEGRADATION OF IRAK-4” (Arvinas Operations, Inc., priority 2021, published 2023).

In the assay the target is T1, IRAK-4 (Homo sapiens, UniProt Q9NWZ3).
T1 sequence (Q9NWZ3 1-460): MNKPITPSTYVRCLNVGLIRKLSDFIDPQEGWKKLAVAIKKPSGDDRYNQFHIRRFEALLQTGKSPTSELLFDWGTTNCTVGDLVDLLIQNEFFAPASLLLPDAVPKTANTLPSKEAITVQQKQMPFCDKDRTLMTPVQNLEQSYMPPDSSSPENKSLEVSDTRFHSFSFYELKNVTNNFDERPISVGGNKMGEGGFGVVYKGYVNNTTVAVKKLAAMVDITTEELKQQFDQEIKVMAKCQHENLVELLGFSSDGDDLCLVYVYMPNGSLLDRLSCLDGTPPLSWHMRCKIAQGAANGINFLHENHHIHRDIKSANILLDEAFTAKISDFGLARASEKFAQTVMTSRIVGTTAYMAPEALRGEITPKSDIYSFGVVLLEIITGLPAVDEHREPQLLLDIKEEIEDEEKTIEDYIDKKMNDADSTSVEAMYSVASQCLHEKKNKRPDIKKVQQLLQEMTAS
The assay can be described thus: IRAK-4 ELISA, OCI-Ly10 degradation. It counts as cell-based. The arrangement: endogenous in cells. The following applies: treated overnight; for Dmax: OCI-Ly10, OCI-Ly10 cells; for DC50: OCI-Ly10 cells. The procedure: Reagents: Human IRAK-4 Matched Antibody Pair Kit (Abcam ab218182) and ELISA Accessory Pack (Abcam ab210905).
Cell Treatment and Lysis:
1. OCI-Ly10: 200,000 cells are seeded at 1×10^6/ml in 96-well U-bottom plates 200 ul per well, treated with compound the same day. Incubate overnight. 2. PBMC: 800,000 cells are seeded at 2×10^6/ml in 96-well U-bottom deep-well plates, 400 ul per well, treated with compound the same day. Incubate overnight.
Cell lysate is collected and analyzed by ELISA for IRAK-4 levels.

The Dmax is the greatest extent of degradation seen. For orientation: DC50 means the midpoint of the concentration-degradation curve.

Structures are written as SMILES.

`CC(C)Oc1cc2c(cc1NC(=O)c1cnn3cccnc13)CN(C1CCN(C3CN(c4cc5c(cc4F)C(=O)N(C4CCC(=O)NC4=O)C5=O)C3)CC1)C2=O` (stereo not drawn) [Example 63]: the Dmax was at least 90% and the DC50 was 10 to 50 nM.

The molecule `O=C1CCC(N2Cc3cc(N4CCC(CN5CCC(n6cc7cc(NC(=O)c8cnn9cccnc89)c(OCC8CC8)cc7n6)CC5)CC4)ccc3C2=O)C(=O)N1` (stereo not drawn) [Example 118, N-(6-(cyclopropylmethoxy)-2-(1-((1-(2-(2,6-dioxopiperidin-3-yl)-1-oxoisoindolin-5-yl)piperidin-4-yl)methyl)piperidin-4-yl)-2H-indazol-5-yl)pyrazolo[1,5-a]pyrimidine-3-carboxamide] registered a Dmax of at least 90% and a DC50 below 10 nM.

Molecule `O=C1CCC(N2C(=O)c3ccc(OCCOCCN4CCC(n5cc6cc(NC(=O)c7cnn8cc(Cl)cnc78)c(OCC7CC7)cc6n5)CC4)cc3C2=O)C(=O)N1` (stereo not drawn) [Example 120] registered a Dmax of at least 90% and a DC50 of 10 to 50 nM.

In turn, `O=C1CCC(N2C(=O)c3ccc(OCCOCCN4CCC(n5cc6cc(NC(=O)c7cnn8cccnc78)c(OCC7CC7)cc6n5)CC4)cc3C2=O)C(=O)N1` (stereo not drawn) [Example 121] came in with a Dmax of at least 90% and a DC50 of 10 to 50 nM.

Molecule `O=C1CCC(N2C(=O)c3ccc(CN4CCC(n5cc6cc(NC(=O)c7cnn8cccnc78)c(OCC7CC7)cc6n5)CC4)cc3C2=O)C(=O)N1` (stereo not drawn) [Example 123] registered a DC50 of at least 100 nM.

The molecule `O=C1CCC(N2C(=O)c3ccc(OCCN4CCC(n5cc6cc(NC(=O)c7cnn8cccnc78)c(OCC7CC7)cc6n5)CC4)cc3C2=O)C(=O)N1` (stereo not drawn) [Example 125] displayed a Dmax of 70 to 80% and a DC50 of 10 to 50 nM.

`O=C1CCC(N2C(=O)c3ccc(CCN4CCC(n5cc6cc(NC(=O)c7cnn8cccnc78)c(OCC7CC7)cc6n5)CC4)cc3C2=O)C(=O)N1` (stereo not drawn) [Example 127] came in with a Dmax of at least 90% and a DC50 of 10 to 50 nM.

`O=C1CCC(N2Cc3cc(N4CCC(CN5CCC(n6cc7cc(NC(=O)c8cnn9cc(Cl)cnc89)c(OCC8CC8)cc7n6)CC5)CC4)ccc3C2=O)C(=O)N1` (stereo not drawn) [Example 129] yielded a Dmax of 80 to 90% and a DC50 below 10 nM.

For `Cc1cnc2c(C(=O)Nc3cc4cn(C5CCN(CC6CCN(c7ccc8c(c7)C(=O)N(C7CCC(=O)NC7=O)C8=O)CC6)CC5)nc4cc3OCC3CC3)cnn2c1` (stereo not drawn) [Example 130], the Dmax was at least 90% and the DC50 lay within 50 to 100 nM.

On to `O=C1CCC(N2Cc3cc(N4CCC(CN5CCC(n6cc7cc(NC(=O)c8cnn9cccnc89)c(C8CC8)cc7n6)CC5)CC4)ccc3C2=O)C(=O)N1` (stereo not drawn) [Example 135], for which the Dmax is 80 to 90% and the DC50 is below 10 nM.

`COc1cc2nn(C3CCN(CC4CCN(c5ccc6c(c5)C(=O)N(C5CCC(=O)NC5=O)C6=O)CC4)CC3)cc2cc1NC(=O)c1cnn2cc(C)cnc12` (stereo not drawn) [Example 140]: the Dmax is 80 to 90% and the DC50 was in the range of 10 to 50 nM.

`COc1cc2nn(C3CCN(CCc4ccc5c(c4)C(=O)N(C4CCC(=O)NC4=O)C5=O)CC3)cc2cc1NC(=O)c1cnn2cccnc12` (stereo not drawn) [Example 144] yielded a DC50 of at least 100 nM.

In turn, `COc1cc2nn([C@H]3CCN(CC4CCN(c5ccc6c(c5)CN(C5CCC(=O)NC5=O)C6=O)CC4)C[C@@H]3F)cc2cc1NC(=O)c1cnn2cccnc12` (stereo partly drawn) [Example 145] showed a Dmax of at least 90% and a DC50 of 10 to 50 nM.

Turning to `COc1cc2nn(C3CN(CC4CCN(c5ccc6c(c5)C(=O)N(C5CCC(=O)NC5=O)C6=O)CC4)C3)cc2cc1NC(=O)c1cnn2cccnc12` (stereo not drawn) [Example 146], the DC50 was at least 100 nM.

Molecule `O=C1CCC(N2Cc3cc(N4CCN(CCN5CCC(n6cc7cc(NC(=O)c8cnn9cccnc89)c(OCC8CC8)cc7n6)CC5)CC4)ccc3C2=O)C(=O)N1` (stereo not drawn) [Example 160, N-(6-(cyclopropylmethoxy)-2-(1-(2-(4-(2-(2,6-dioxopiperidin-3-yl)-1-oxoisoindolin-5-yl)piperazin-1-yl)ethyl)piperidin-4-yl)-2H-indazol-5-yl)pyrazolo[1,5-a]pyrimidine-3-carboxamide] displayed a Dmax of at least 90% and a DC50 below 10 nM.

`O=C1CCC(N2C(=O)c3ccc(N4CC(CN5CCC(n6cc7cc(NC(=O)c8cnn9cccnc89)c(OCC8CC8)cc7n6)CC5)C4)cc3C2=O)C(=O)N1` (stereo not drawn) [Example 162] displayed a Dmax of at least 90% and a DC50 below 10 nM.

Molecule `O=C1CCC(N2C(=O)c3ccc(N4CC(N5CCC(n6cc7cc(NC(=O)c8cnn9cccnc89)c(OCC8CC8)cc7n6)CC5)C4)cc3C2=O)C(=O)N1` (stereo not drawn) [Example 163] had a maximal degradation (Dmax) of at least 90% and a DC50 of 10 to 50 nM.

`O=C1CCC(N2C(=O)c3ccc(N4CC(CN5CCC(n6cc7cc(CC(=O)c8cnn9cc(Cl)cnc89)c(OCC8CC8)cc7n6)CC5)C4)cc3C2=O)C(=O)N1` (stereo not drawn) [Example 164] gave a Dmax of at least 90% and a DC50 of 10 to 50 nM.

For `CC1(CN2CCC(n3cc4cc(NC(=O)c5cnn6cccnc56)c(OCC5CC5)cc4n3)CC2)CN(c2ccc3c(c2)C(=O)N(C2CCC(=O)NC2=O)C3=O)C1` (stereo not drawn) [Example 168], the Dmax is at least 90% and the DC50 was in the range of 10 to 50 nM.

`O=C1CCC(N2C(=O)c3ccc(N4CCC([C@H](F)Cn5cc6cc(NC(=O)c7cnn8cccnc78)c(OCC7CC7)cc6n5)CC4)cc3C2=O)C(=O)N1` (stereo partly drawn) [Example 171] yielded a Dmax of 70 to 80% and a half-maximal degradation concentration (DC50) of 50 to 100 nM.

In the case of `O=C1CCC(N2C(=O)c3ccc(N4CC(COC[C@H](F)Cn5cc6cc(NC(=O)c7cnn8cccnc78)c(OCC7CC7)cc6n5)C4)cc3C2=O)C(=O)N1` (stereo partly drawn) [Example 172], the Dmax was 80 to 90% and the DC50 is at least 100 nM.

With `O=C1CCC(N2C(=O)c3ccc(C#CCN4CCC(n5cc6cc(NC(=O)c7cnn8cccnc78)c(OCC7CC7)cc6n5)CC4)cc3C2=O)C(=O)N1` (stereo not drawn) [Example 178], the Dmax fell in the range of 80 to 90% and the DC50 is at least 100 nM.

`O=C1CCC(N2Cc3cc(C#CCN4CCC(n5cc6cc(NC(=O)c7cnn8cccnc78)c(OCC7CC7)cc6n5)CC4)ccc3C2=O)C(=O)N1` (stereo not drawn) [Example 179] displayed a Dmax below 70% and a DC50 of at least 100 nM.

`O=C1CCC(N2C(=O)c3ccc(N4CCN(CCOC[C@H](F)Cn5cc6cc(NC(=O)c7cnn8cccnc78)c(OCC7CC7)cc6n5)CC4)cc3C2=O)C(=O)N1` (stereo partly drawn) [Example 180] displayed a Dmax of at least 90% and a DC50 of 10 to 50 nM.

`O=C1CCC(N2C(=O)c3ccc(N4CCC(COC[C@H](F)Cn5cc6cc(NC(=O)c7cnn8cccnc78)c(OCC7CC7)cc6n5)CC4)cc3C2=O)C(=O)N1` (stereo partly drawn) [Example 181] came in with a Dmax of 80 to 90% and a DC50 of at least 100 nM.

Take `COc1cc2nn(C3CCN(CC4CCN(c5ccc6c(c5)C(=O)N(C5CCC(=O)NC5=O)C6=O)CC4)CC3)cc2cc1NC(=O)c1cnn2cccnc12` (stereo not drawn) [Example 201]: the Dmax was at least 90% and the DC50 is below 10 nM.

Molecule `COc1cc2nn(C3CCN(CC4CN(c5ccc6c(c5)C(=O)N(C5CCC(=O)NC5=O)C6=O)C4)CC3)cc2cc1NC(=O)c1cnn2cc(Cl)cnc12` (stereo not drawn) [Example 203] showed a Dmax of at least 90% and a 50% degradation concentration (DC50) below 10 nM.

`COc1cc2nn(C3CCN(CC#Cc4ccc5c(c4)C(=O)N(C4CCC(=O)NC4=O)C5=O)CC3)cc2cc1NC(=O)c1cnn2cccnc12` (stereo not drawn) [Example 204]: the Dmax was below 70% and the DC50 was 50 to 100 nM.

The molecule `COc1cc2nn(C3CCN(C4CN(c5ccc6c(c5)C(=O)N(C5CCC(=O)NC5=O)C6=O)C4)CC3)cc2cc1NC(=O)c1cnn2cccnc12` (stereo not drawn) [Example 205] gave a Dmax of 80 to 90% and a DC50 below 10 nM.

Take `COc1cc2nn(C3CCN(C(C)(C)C4CN(c5ccc6c(c5)C(=O)N(C5CCC(=O)NC5=O)C6=O)C4)CC3)cc2cc1NC(=O)c1cnn2cccnc12` (stereo not drawn) [Example 206]: the Dmax was at least 90% and the DC50 is below 10 nM.

In turn, `COc1cc2nn([C@H]3CCN(CC4CCN(c5ccc6c(c5)C(=O)N(C5CCC(=O)NC5=O)C6=O)CC4)C[C@@H]3F)cc2cc1NC(=O)c1cnn2cccnc12` (stereo partly drawn) [Example 208] displayed a Dmax of at least 90% and a DC50 of 10 to 50 nM.

Turning to `COc1cc2nn(C3CCN(CC4CN(c5ccc6c(c5)C(=O)N(C5CCC(=O)NC5=O)C6=O)C4)C3)cc2cc1NC(=O)c1cnn2cccnc12` (stereo not drawn) [Example 209], the half-maximal degradation concentration (DC50) was at least 100 nM.

As for `COc1cc2nn(C3CCN(CC4CCN(c5ccc6c(c5)C(=O)N(C5CCC(=O)NC5=O)C6=O)CC4)C3)cc2cc1NC(=O)c1cnn2cccnc12` (stereo not drawn) [Example 210], the DC50 is at least 100 nM.

As to `COc1cc2nn([C@H]3CC[C@@H](OC4CN(c5ccc6c(c5)C(=O)N(C5CCC(=O)NC5=O)C6=O)C4)CC3)cc2cc1NC(=O)c1cnn2cccnc12` (stereo partly drawn) [Example 211], the DC50 is at least 100 nM.

For the molecule `COc1cc2nn(C[C@@H](F)COCC3CCN(c4ccc5c(c4)C(=O)N(C4CCC(=O)NC4=O)C5=O)CC3)cc2cc1NC(=O)c1cnn2cccnc12` (stereo partly drawn) [Example 213], the Dmax is below 70% and the DC50 was at least 100 nM.

The molecule `O=C1CCC(NC(=O)c2ccc(N3CCC(CN4CCC(n5cc6cc(NC(=O)c7cnn8cc(Cl)cnc78)c(OCC7CC7)cc6n5)CC4)CC3)cc2F)C(=O)N1` (stereo not drawn) [Example 289] displayed a Dmax of at least 90% and a DC50 of 10 to 50 nM.
